Experiments:
human PHD2 = target: T1, human PHD2 (Homo sapiens, UniProt Q9GZT9); experiment: PHD2 activity, in vitro VHL pull down assay; assay type: biochemical; conditions: capture of [35S]-labeled VHL by GST-ODD of human HIF-1α
T1 construct: histidine tag; made in house; host or cells: E. coli
Protocol: The present inventors investigated the effect of CQ on the activity of PHD2. Human PHD2 gene (AJ310543) was cloned into pET21b His2(+) vector and then the human PHD2 was expressed with a histidine tag in E. coli and purified by Ni-affinity chromatography (Choi, K. O. et al., Mol. Pharrmacol. 68, 1803-1809, 2005). The in vitro VHL pull down assay was performed as described by Haakkola et al (Haakkola, P. et al., Science 292,468-472, 2001). Particularly, [^35S]-methionine-labeled VHL protein was synthesized by in vitro transcription and translation using the pcDNA3.1/myc-hygro-VHL plasmid (Promega, Cat# L1170, USA), according to the instruction manual (Promega, Cat# L1170). GST-ODD (amino acids 401-603 of human HIF-1α) was expressed in E. coli and purified with glutathione-uniflow resin according to the instruction manual (BD Bioscience Clontech, Cat# 8912-1, USA). […] After agitation at 4° C. for 2 hours, the resin was washed three times with 1 ml of NETN buffer, and proteins were eluted in 3×SDS sample buffer, fractionated by 12% SDS-PAGE, and detected by autoradiography. The amount of each sample loaded was monitored by staining the GST-ODD with Coomassie blue.

HIF-1α = experiment: In vivo HIF-1α ubiquitination in HepG2 cells (Western blotting); assay type: cell-based, human; conditions: normoxic condition, 6 hours, CQ 100 μM, TPEN 5 μM

T1 sequence (Q9GZT9 whole entry): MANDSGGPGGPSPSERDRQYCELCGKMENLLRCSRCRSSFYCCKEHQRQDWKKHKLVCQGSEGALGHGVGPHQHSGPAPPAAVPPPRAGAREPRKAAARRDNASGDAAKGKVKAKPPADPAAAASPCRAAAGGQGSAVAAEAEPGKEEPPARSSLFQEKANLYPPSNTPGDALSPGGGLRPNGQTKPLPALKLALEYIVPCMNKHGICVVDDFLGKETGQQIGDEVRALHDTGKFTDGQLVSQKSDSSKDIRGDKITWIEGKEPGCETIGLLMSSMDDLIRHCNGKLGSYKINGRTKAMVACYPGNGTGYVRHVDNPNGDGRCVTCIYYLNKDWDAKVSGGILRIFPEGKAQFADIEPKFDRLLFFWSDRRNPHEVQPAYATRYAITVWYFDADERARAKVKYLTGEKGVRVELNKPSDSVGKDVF

c1ccc(CN(CCN(Cc2ccccn2)Cc2ccccn2)Cc2ccccn2)nc1 [TPEN, tetrakis-(2-pyridylmethyl)ethanediamine]
activity of PHD2 (human PHD2): increased the activity of PHD2
HIF-1α ubiquitination in cells (HIF-1α): inhibited HIF-1α ubiquitination

— patent US8658672B2, “HIF-1α activating agent” (University of Seoul Foundation of Industrial and Academic …, priority 2006, dated 2014)
